Experimental data as given in patent US20220401414A1, “TREATMENT AND PREVENTION OF A NEURODEGENERATIVE DISORDER” (Inflazome Limited, priority 2019, published 2022).

Assays:
[1] = Study B: blood-brain barrier penetration, striatal MetaQuant microdialysis in unilateral 6-OHDA lesioned mice after oral dosing; assay type: in vivo, C57B1/6 mice; conditions: 6-OHDA mice; for average peak levels in left and right striatal dialysate: MetaQuant dialysate, not corrected for recovery (recovery 61%); for time of average peak levels after compound administration: striatal dialysate
Description: The present study was designed to assess the free concentration of the compound of formula (I) in the left and right striatum of freely-moving adult male mice with a unilateral 6-hydroxydopamine (6-OHDA) lesion.
Adult male C57B1/6 mice (23-28 g; Envigo, the Netherlands) were used for the experiments. Following arrival, animals were housed in groups of 5 in polypropylene cages (40×50×20 cm) with wire mesh top in a temperature (22±2° C.) and humidity (55±15%) controlled environment on a 12 hour light cycle (07.00-19.00). Following surgery, animals were housed individually (cages 30×30×40 cm). Standard diet (SDS Diets, RM1 PL) and domestic quality mains water were available ad libitum.
Mice were anesthetized using isoflurane (2% and 500 mL/min O2). Before surgery, Finadyne (1 mg/kg, s.c.) was administered for analgesia during surgery and the post-surgical recovery period. A mixture of bupivacaine and epinephrine was used for local analgesia of the incision site.
The animals were placed in a stereotaxic frame (Kopf instruments, USA). 10 μg of 6-OHDA in 2 μL saline was slowly injected into the right striatum using a Hamilton needle (coordinates for the tip of the needle: AP=−0.5 mm (to bregma), ML=−2.0 mm (to midline), DV=-4.0 mm (to dura) with an angle of 0° and the incisor bar set at 0.0 mm.
In the same surgical procedure, guides for MetaQuant microdialysis probes with a 3 mm exposed polyacrylonitrile membrane (MQ-PAN 3/3) were implanted bilaterally into the left and right striatum (coordinates for the tip of the probe: AP=+0.8 mm (to bregma), ML=+/−1.7 mm (to midline), DV=−4.0 mm (to dura) with an angle of 0° and the incisor bar set at 0.0 mm. All coordinates were based on “The mouse brain in stereotaxic coordinates” by Paxinos and Franklin (2008). The probes were attached to the skull with a stainless-steel screw and dental cement.
The monosodium salt of the compound of formula (I) was formulated in sterilized tap water at concentrations of 0.2 and 4 mg/mL for oral dosing at 5 mL/kg; 1 mg/kg and 20 mg/kg, respectively.
After recovery from lesion and the guide surgery, on day 10, MetaQuant microdialysis probes were connected with flexible PEEK tubing (Western Analytical Products Inc. USA; PK005-020) to a microperfusion pump (Harvard) and perfused with a slow flow of artificial CSF (perfusate), containing 147 mM NaCl, 3.0 mM KCl, 1.2 mM CaCl2, and 1.2 mM MgCl2, at a flow rate of 0.12 μL/min and a carrier flow of UP+0.02 M FA+0.04% ascorbic acid at 0.8 μL/min. After a minimum of two hours of prestabilisation, microdialysis samples were collected in 60 minute intervals. […]
Levels of the compound of formula (I) in MetaQuant microdialysate samples were quantified by LC-MS/MS. […]

IL-1β = assay: Study H: IL-1β ELISA in plasma of PFF-Synuclein mice; assay type: in vivo, C57BL6 mice; conditions: 0.3 mg/ml drinking water, 12 months after PFF-Synuclein injections
From the text: To determine the oral efficacy of the compound of formula (I) in a chronic progressive model of Parkinson's disease (PD), the preformed fibrils (PFF) mouse model, using a prophylactic and therapeutic dosing schedule.
8-week-old C57BL6 male mice (obtained from ARC, Perth, Australia) were housed under a 12-h light cycle in a SPF climate-controlled facility with food and water provided ad libitum for two weeks prior to study initiation. The compound of formula (I) (or water alone for control animals) was administrated to mice in drinking water at 0.3 mg/ml. Animals were separated into the groups described in Table 9, with ten animals initiated in each cohort. […]
Recombinant human a-synuclein was obtained from rPeptide Inc., and in vitro fibril generation was performed with a final concentration of 2 mg/ml in phosphate-buffered saline (PBS) by incubation at 37° C. with agitation in an orbital mixer (400 rpm) for 7 days with daily cycles of sonication used to break down fibrillar aggregates as outlined in previously published reports (see Luk et al., Science, 2012, vol. 338(6109), pp. 949-53; and Zhang et al., Methods Mol. Biol., 2019, vol. 1948, pp. 45-57, which are incorporated in their entirety herein by reference). The generation of fibrillar α-synuclein species was confirmed by transmission electron microscopy and Thioflavin T fluorescence prior to use. […]

For CC(C)n1ccc(S(=O)(=O)NC(=O)Nc2c3c(cc4c2CCC4)CCC3)n1 [compound of formula (I)], the “average peak levels in left and right striatal dialysate” value ([1]; 1 mg/kg oral) was 17 to 19 nM, the “time of average peak levels after compound administration” value ([1]; 1 mg/kg oral) was 5 h and the “average peak levels in left and right striatal dialysate” value ([1]; 20 mg/kg oral) was 280 to 300 nM. For the same compound, the “time of average peak levels after compound administration” value ([1]; 20 mg/kg oral) was 6 h, the “circulating IL-1β in plasma compared with the PFF-Synuclein group” value (IL-1β; prophylactic treatment) was “significant decrease in circulating IL-1β” and the “circulating IL-1β in plasma compared with the PFF-Synuclein group” value (IL-1β; therapeutic treatment) was “significant decrease in circulating IL-1β”.
